In patent publication US20090232909A1, “Method for determining physiological effects of hemoglobin” (priority 1999, published 2009):
“Also recorded” adds a separate entry of the source.

What was measured:
IOVs = test: Binding of SNO-Hb to IOVs from native or DIDS-treated RBCs; settings: 10 mM MOPS, pH 7, 21% O2
Protocol: (§1) Immunoprecipitation was carried out by incubation of TX-100 or NP-40 extracts with antibodies followed by protein G-Sepharose. We employed two monoclonal anti-AE1 antibodies (Sigma, clone BIII-136, and kindly provided by M. Telen) that recognized epitopes in the cytoplasmic domain and that produced indistinguishable results. Immune complexes were eluted with 10 mM glycine at pH 3.0, and eluates were adjusted immediately to pH 7.4 followed by photolysis/chemiluminescence. Efficiency of immunoprecipitation was confirmed by Western blotting. Binding of SNO-Hb to IOVs was assessed in 10 mM MOPS buffer, pH 7, at room temperature and 21% O2. Incubation was for 15 mins before IOVs were solubilized in 1% TX-100, and heme content was assessed spectrophotometrically. When employed, RBCs were treated for 60 mins with DIDS (0.1 mM; calculated 10-fold molar excess over AE1), then washed thoroughly to remove unreacted DIDS. RBCs were then exposed to NO (as above) or used to prepare DIDS-modified IOVs (as above).

RBC membrane thiols = test: Alkylation of IOV proteins with 14C-iodoacetamide; assay type: biochemical; settings: DIDS-modified vs unmodified IOVs
Text: FIG. 8G is a fluorographic image of proteins on an SDS-polyacrylamide gel following electrophoresis. […] The position of AE1 on the gel, determined by Western blotting, is indicated. (n=3-8 for A-F).
Thus, inhibition of transnitrosylation by DIDS supports the conclusion that AE1 is the principal acceptor of NO groups transferred from SNO-Hb to the RBC membrane.

AE1 = target: T1, AE1 (Homo sapiens, UniProt P02730); test: SNO content of AE1 immunoprecipitates from IOV and RBC membrane extracts; assay type: biochemical; settings: RBCs treated with 0.1 mM DIDS before NO
T1 construct: immunoprecipitated AE1 with monoclonal antibodies, and measured NO in immunoprecipitates (IPs); endogenous in cells; host or cells: RBCs (fresh venous blood) and IOVs from outdated RBCs; TX-100 or NP-40 extracts
T1 sequence (P02730 1-911): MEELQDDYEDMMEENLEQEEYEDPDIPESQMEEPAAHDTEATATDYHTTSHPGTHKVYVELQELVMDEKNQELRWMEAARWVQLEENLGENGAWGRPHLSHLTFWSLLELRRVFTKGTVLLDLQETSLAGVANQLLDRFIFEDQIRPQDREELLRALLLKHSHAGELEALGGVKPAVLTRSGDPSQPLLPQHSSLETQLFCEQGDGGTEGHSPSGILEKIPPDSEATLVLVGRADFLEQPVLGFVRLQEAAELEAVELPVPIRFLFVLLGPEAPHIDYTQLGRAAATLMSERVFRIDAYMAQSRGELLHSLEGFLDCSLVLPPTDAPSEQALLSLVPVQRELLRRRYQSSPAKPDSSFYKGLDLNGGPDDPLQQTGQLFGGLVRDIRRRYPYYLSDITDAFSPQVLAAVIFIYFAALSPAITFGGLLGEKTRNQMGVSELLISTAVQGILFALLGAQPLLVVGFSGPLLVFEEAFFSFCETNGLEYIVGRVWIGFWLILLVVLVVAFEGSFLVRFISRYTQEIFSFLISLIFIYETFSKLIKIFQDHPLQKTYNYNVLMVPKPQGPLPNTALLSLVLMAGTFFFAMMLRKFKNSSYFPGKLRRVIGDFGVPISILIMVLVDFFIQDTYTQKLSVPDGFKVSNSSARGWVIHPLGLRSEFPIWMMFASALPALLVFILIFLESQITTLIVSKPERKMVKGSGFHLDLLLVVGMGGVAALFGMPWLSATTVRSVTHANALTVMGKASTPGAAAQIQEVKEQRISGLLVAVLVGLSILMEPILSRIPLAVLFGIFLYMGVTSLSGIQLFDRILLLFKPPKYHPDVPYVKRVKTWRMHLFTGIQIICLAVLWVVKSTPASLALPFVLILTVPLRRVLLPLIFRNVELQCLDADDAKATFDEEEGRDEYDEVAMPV
Protocol: as §1
To assess this mechanism, we incubated IOVs with free or Sepharose-bound NO-Hb and also treated RBCs with NO(NO:heme ratio of 1:250), prepared TX-100 or NP-40 extracts of IOVs and RBC membranes, immunoprecipitated AE1 with monoclonal antibodies, and measured NO in immunoprecipitates (IPs). […] SNO was detected at negligible levels in IPs generated with a non-specific mouse IgG (FIGS. 8A-8C). […]

SNO-Hb binding to IOVs from native vs DIDS-treated RBCs (IOVs): equal affinity
Structure (SMILES): O=S(=O)(O)c1cc(N=C=S)ccc1C=Cc1ccc(N=C=S)cc1S(=O)(=O)O [DIDS, 4,4′-diisothiocyanatostilbene-2,2′-disulfonic acid]
direct modification of sulfhydryls (RBC membrane thiols): did not modify sulfhydryls directly; also recorded: does not directly reduce reactivity | effect on SNO content of AE1 IPs from RBC membrane extracts (AE1): reduced substantially; also recorded: greatly reduced
